In brackets after ≈: the same amount, converted by molar mass.
Experiments:
HepG2 = experiment: Cytotoxicity (anticancer screening) on HepG2; type: cell-based, human; conditions: for IC50: HepG2, human hepatocellular liver carcinoma cell line, 72 h of incubation; for activity class against HepG2: SAR statement, four tested cell lines
From the text: (§1) Keeping the aforementioned details in mind, the objective of this study was to synthesize new pharmaceuticals for anticancer assessment as a trial to produce newer antitumor drugs with increased activity and minimal adverse effects. Human hepatocellular liver carcinoma cell line (HepG2), human lung fibroblast cell line (WI-38), human breast adenocarcinoma cell line (MCF-7), and normal adult African green monkey kidney cell line (VERO) were the four different types of […] cell lines used to test the anticancer activity of all newly synthesized compounds (Fig. 5).
(§2) It was carried out according to the previously reported work[48].

WI-38 = experiment: Cytotoxicity (anticancer screening) on WI-38; type: cell-based, human; conditions: for IC50: WI-38, human lung fibroblast cell line, 72 h of incubation; for activity class against WI-38: SAR statement, four tested cell lines
From the text: as §1, §2

VERO = experiment: Cytotoxicity (anticancer screening) on VERO; type: cell-based; conditions: Chlorocebus sabaeus, normal adult African green monkey kidney cell line, 72 h of incubation
From the text: as §1, §2

MCF-7 = experiment: Cytotoxicity (anticancer screening) on MCF-7; type: cell-based, human; conditions: for IC50: MCF7, human breast adenocarcinoma cell line, 72 h of incubation; for activity class against MCF-7: SAR statement, four tested cell lines
From the text: as §1, §2

Row | SMILES | IC50 (HepG2) [µg/mL] | IC50 (WI-38) [µg/mL] | IC50 (VERO) [µg/mL] | IC50 (MCF-7) [µg/mL] | activity class against HepG2 (HepG2) | activity class against WI-38 (WI-38) | activity class against MCF-7 (MCF-7)
1 | Cc1cc(=O)oc2c1ccc1oc(=N)c3c(=O)oc4c(c3c12)CCC4 [Compound 17, 3-Imino-7-methyl-3,11,12,13-tetrahydro-2 H,9 H-cyclopenta[5,6]pyrano[3,4-c]pyrano [2,3-f]chromene-2,9-dione] | 40.2 ± 0.23 (≈ 120 µM) | 53.5 ± 0.1 (≈ 160 µM) | 56.2 ± 1.06 (≈ 168 µM) | 52.5 ± 0.18 (≈ 157 µM) |  |  | 
2 | Cc1cc(=O)oc2c1ccc1oc(=N)c(C#N)cc12 [Compound 3, 8-imino-4-methyl-2-oxo-2 H,8 H-pyrano[2,3-f]chromene-9-carbonitrile] | 59 ± 0.22 (≈ 234 µM) | 68.2 ± 0.07 (≈ 270 µM) | 71.02 ± 0.05 (≈ 282 µM) | 70 ± 0.06 (≈ 278 µM) |  |  | 
3 | Cc1cc(=O)oc2c1ccc1oc(=N)c(C(N)=O)cc12 [Compound 12, 8-Imino-4-methyl-2-oxo-2 H,8 H-pyrano[2,3-f]chromene-9-carboxamide] | 37.5 ± 1.13 (≈ 139 µM) | 48.2 ± 1.04 (≈ 178 µM) | 51.3 ± 1.05 (≈ 190 µM) | 49.4 ± 0.19 (≈ 183 µM) |  |  | 
4 | CCOC(=O)c1cc2c(ccc3c(C)cc(=O)oc32)oc1=N [Compound 16, ethyl 8-imino-4-methyl-2-oxo-2 H,8 H-pyrano[2,3-f]chromene-9-carboxylate] | 52.5 ± 1.22 (≈ 175 µM) | 59.3 ± 1.04 (≈ 198 µM) | 57.5 ± 0.05 (≈ 192 µM) | 52.1 ± 0.04 (≈ 174 µM) |  |  | 
5 | Cc1cc(=O)oc2c1ccc1oc3nc(CC#N)nc(=N)c-3cc12 [Compound 4, 2-(11-Imino-4-methyl-2-oxo-2 H,11 H-pyrano[2’,3’:5,6]chromeno[2,3-d]pyrimidin-9-yl) acetonitrile] | 24.5 ± 0.11 (≈ 77 µM) | 31 ± 0.01 (≈ 97.4 µM) | 34.1 ± 0.15 (≈ 107 µM) | 31.4 ± 0.11 (≈ 98.7 µM) |  |  | 
6 | Cc1cc(=O)oc2c3c(ccc12)NC(=O)C1=C(N)OC2=C(CCC2)C13 (centres unmarked) [Compound 13, 2-Amino-7-methyl-10c,11,12,13-tetrahydro-3 H-cyclopenta[5,6]pyrano[3,4-c]pyrano[2,3-f]quinoline-3,9(4 H)-dione] | 45.2 ± 1.13 (≈ 134 µM) | 56 ± 1.14 (≈ 166 µM) | 58.2 ± 1.05 (≈ 173 µM) | 53 ± 0.19 (≈ 158 µM) |  |  | 
7 | Cc1cc(=O)oc2c3c(ccc12)Oc1nc(CC#N)nc2nc4c(c-3c12)CCCC4 [Compound 8, 2-(15-Methyl-13-oxo-8,9,10,11-tetrahydro-13 H-3,12-dioxa-4,6,7-triazanaphtho[3,2,1-no]tetraphen-5-yl)acetonitrile] | 4.9 ± 0.11 (≈ 12.4 µM) | 7.5 ± 0.01 (≈ 18.9 µM) | 5.7 ± 0.06 (≈ 14.4 µM) | 5.1 ± 0.18 (≈ 12.9 µM) | very strong (1–10 (very strong)) | very strong (1–10 (very strong)) | very strong (1–10 (very strong))
8 | Cc1cc(=O)oc2c1ccc1oc(=O)c(C#N)cc12 [Compound 15, 4-Methyl-2,8-dioxo-2 H,8 H-pyrano[2,3-f]chromene-9-carbonitrile] | 35.2 ± 1.13 (≈ 139 µM) | 38 ± 1.22 (≈ 150 µM) | 40.3 ± 1.19 (≈ 159 µM) | 37.03 ± 0.04 (≈ 146 µM) |  |  | 
9 | Cc1cc(=O)oc2c3c(ccc12)Oc1nc(CC#N)nc2nc4c(c-3c12)CCCCC4 [Compound 9, 2-(16-Methyl-14-oxo-9,10,11,12-tetrahydro-8 H,14 H-3,13-dioxa-4,6,7-triazacyclohepta[4,5]benzo[1,2,3-no]tetraphen-5-yl)acetonitrile] | 5.4 ± 1.22 (≈ 13.2 µM) | 5.9 ± 0.03 (≈ 14.4 µM) | 6.6 ± 0.02 (≈ 16.1 µM) | 7.2 ± 1.02 (≈ 17.5 µM) | very strong (1–10 (very strong)) | very strong (1–10 (very strong)) | very strong (1–10 (very strong))
10 | Cc1cc(=O)oc2c3c(ccc12)Oc1nc(CC#N)nc2nc(N)c(C#N)c-3c12 [Compound 5, 2-amino-5-(cyanomethyl)-10-methyl-12-oxo-12 H-7,13-dioxa-3,4,6-triazabenzo[no]tetraphene-1-carbonitrile] | 21.2 ± 1.22 (≈ 55.4 µM) | 27.5 ± 0.31 (≈ 71.9 µM) | 31.2 ± 0.02 (≈ 81.6 µM) | 30 ± 1.01 (≈ 78.5 µM) |  |  | 
11 | Cc1cc(=O)oc2c3c(ccc12)Oc1nc(CC#N)nc2nc(-c4ccccc4)cc-3c12 [Compound 6, 2-(10-Methyl-12-oxo-2-phenyl-12 H-7,13-dioxa-3,4,6-triazabenzo[no]tetraphene-5-yl) acetonitrile] | 19.1 ± 1.13 (≈ 45.6 µM) | 26 ± 0.21 (≈ 62.1 µM) | 24.1 ± 0.19 (≈ 57.6 µM) | 22.5 ± 0.04 (≈ 53.8 µM) |  |  | 
12 | O=c1[nH]cc(F)c(=O)[nH]1 [Compound 5-Flu, 5-fluorouracil, reference compound] | 2.5 ± 1.03 (≈ 19.2 µM) | 5.5 (≈ 42.3 µM) | 4 ± 0.04 (≈ 30.8 µM) | 3 ± 0.02 (≈ 23.1 µM) |  |  | 
13 | CCOC(=O)c1cc2c(ccc3c(C)cc(=O)oc32)oc1=O [Compound 18, Ethyl 4-methyl-2,8-dioxo-2 H,8 H-pyrano[2,3-f]chromene-9-carboxylate] | 54 ± 0.22 (≈ 180 µM) | 60.4 ± 0.03 (≈ 201 µM) | 66.5 ± 1.02 (≈ 221 µM) | 57 ± 1.23 (≈ 190 µM) |  |  | 
14 | Cc1cc(=O)oc2c1ccc1[nH]c(=O)c(C#N)cc12 [Compound 11, 4-Methyl-2,8-dioxo-7,8-dihydro-2 H-pyrano[2,3-f]quinoline-9-carbonitrile] | 32.2 ± 1.22 (≈ 128 µM) | 39.01 ± 0.07 (≈ 155 µM) | 35.5 ± 0.01 (≈ 141 µM) | 33.3 ± 1.06 (≈ 132 µM) |  |  | 
15 | Cc1cc(=O)oc2c3c(ccc12)Oc1nc(CC#N)nc2nc4c(c-3c12)CCCCCC4 [Compound 10, 2-(17-Methyl-15-oxo-8,9,10,11,12,13-hexahydro-15 H-3,14-dioxa-4,6,7-triazacycloocta[4,5]benzo[1,2,3-no]tetraphen-5-yl)acetonitrile] | 5.8 ± 1.03 (≈ 13.7 µM) | 7.8 ± 0.1 (≈ 18.4 µM) | 8.2 ± 1.04 (≈ 19.3 µM) | 8.9 ± 1.02 (≈ 21 µM) | very strong (1–10 (very strong)) | very strong (1–10 (very strong)) | very strong (1–10 (very strong))
16 | Cc1cc(=O)oc2c3c(ccc12)Oc1nc(CC#N)nc2nc4c(c-3c12)CCC4 [Compound 7, 2-(14-Methyl-12-oxo-9,10-dihydro-8 H,12 H-3,11-dioxa-4,6,7-triazaindeno[6,5,4-no]tetraphen-5-yl)acetonitrile] | 9.6 ± 1.22 (≈ 25.1 µM) | 9.9 ± 1.04 (≈ 25.9 µM) | 11.5 ± 0.05 (≈ 30.1 µM) | 9.5 ± 0.04 (≈ 24.8 µM) | very strong (1–10 (very strong)) | very strong (1–10 (very strong)) | very strong (1–10 (very strong))
17 | Cc1cc(=O)oc2c3c(ccc12)OC(N)=C1C(=O)NC2=C(CCC2)C13 (centres unmarked) [Compound 14, 3-Amino-7-methyl-10c,11,12,13-tetrahydro-9 H-cyclopenta[b]pyrano [2’,3’:5,6]chromeno [4,3-d]pyridine-2,9(1 H)-dione] | 49 ± 1.22 (≈ 146 µM) | 56 ± 0.32 (≈ 166 µM) | 58 ± 1.02 (≈ 172 µM) | 52 ± 0.01 (≈ 155 µM) |  |  | 

Source: publication PMC12181260, “Design and synthesis of novel pyridopyrimidine moieties linked to coumarin ring of potentially active cytotoxic agents and their docking study” (Scientific Reports, 2025)
